Reference: patent US11434227B2, “Broad spectrum antibacterial activity of novel bisbenzimidazoles targeting topoisomerase IA and the synergistic composition of bisbenzimidazole with efflux pump inhibitors against pathogenic bacteria” (Jawaharlal Nehru University (JNU), priority 2016, dated 2022)
Converted amounts (≈) assume the structure as drawn.

Key:
E. coli 72^R = experiment: Susceptibility (MIC, PAE, MBC), broth microdilution; details: Escherichia coli
Method: (§1) MICs were determined by the broth microdilution method according to CLSI methods (Clinical and Laboratory Standards Institute, 2005). Inoculants were incubated at 37° C. on cation adjusted Mueller Hinton (MH) Broth for 18 to 24 h. Compound were dissolved in media to 10 doubling dilutions from 128 to 0.125 μg/mL. All the bacterial strains were grown in 96 well plate with low evaporation lid (Falcon, Becton Dickinson) in presence of derivatives of benzimidazoles at 0.125, 0.25, 0.5, 1, 2, 4, 8, 16, 32, 64, 128, 256 μg/mL concentrations. […] Plates were read by Tecan Micro-plate Reader at 600 nm.

K. planticola (1164) = experiment: HN12b in combination with efflux pump inhibitors (CB method, FICI)
Method: (§2) 96-well microtiter plates containing MIC25 concentrations of the Efflux pump inhibitor (CCCP, PAβN) and HN12b antimicrobial drugs alone and in CB combination were used. The MICs of the individual drugs HN12b, PAβN and CCCP (0.25 to 128 μg/ml) and of the combinations were determined using the broth microdilution technique as recommended by the CLSI. Briefly, the broth microdilution plates were inoculated with each test organism to yield the appropriate density (10^5 CFU/ml) in 100 μl Mueller-Hinton broth (MHB) and incubated for 24 h at 37° C. in ambient air. One well with no antibiotic was used as a positive growth control on each plate. Plates were read for visual turbidity, and results were recorded after 24 h of incubation at 37° C. in ambient air by using a magnifying mirror reader, as turbidity in wells indicated growth of the microorganism. The MIC was determined as the well in the microtiter plate with the lowest drug concentration at which there was no visible growth. […] MICAB was defined as the MIC of drug A in the presence of drug B; MICBA was defined as the MIC of drug B in the presence of drug A.
(§3) The fractional inhibitory concentration index (FICI) was calculated for each antibiotic in each combination by using the following formula: FICA+FICB=FICI, where FICA equals the MIC of drug A in combination divided by the MIC of drug A alone and FICB equals the MIC of drug B in combination divided by the MIC of drug B alone. The FICIs were interpreted as follows: FICI of ≤0.5 will correspond to synergy; FICI of >0.5 to ≤1 will correspond to additivity; FICI of >1 to ≤4 will correspond to no interaction (indifference), and FICI of >4 will correspond antagonism.

E. coli K12 mutant ΔacrA = experiment: Susceptibility of E. coli K12 and mutants (MIC90); details: Escherichia coli
Method: as §1

[1] = tested on: Acinetobacter baumannii (MTCC1920); experiment: Susceptibility (MIC50/MIC90), broth microdilution
Method: as §1

E. coli 85^R = experiment: Susceptibility (MIC, PAE, MBC), broth microdilution; details: Escherichia coli
Method: as §1

[2] = tested on: efflux and porin genes (acrAB-tolC, emrAB-tolC, ompC, ompF) in E. coli K12 cells; experiment: Gene expression analysis by real-time qPCR; type: cell-based, Escherichia coli; details: E. coli K12 cells treated with ¼ MIC
E. coli K12 mutant ΔtolC = experiment: Susceptibility of E. coli K12 and mutants (MIC90); details: Escherichia coli
Method: as §1

P. aeruginosa (Ps 366) = experiment: HN12b in combination with efflux pump inhibitors (CB method, FICI)
Method: as §2, §3

E. coli 451^R = experiment: Susceptibility (MIC, PAE, MBC), broth microdilution; details: Escherichia coli
Method: as §1

[3] = tested on: Klebsiella planticola (K1164); experiment: Susceptibility (MIC50/MIC90), broth microdilution
Method: as §1

Enterococcus sp.(1150) = experiment: Susceptibility (MIC50/MIC90), broth microdilution
Method: as §1

[4] = Synergistic effect of CCCP and HN12b in neutropenic thigh infection model; type: in vivo, Balb/c mice; details: HN12b 3 mg/kg bw + CCCP 3 mg/kg bw
Enterococcus sp. (2105) [5] = experiment: HN12b in combination with efflux pump inhibitors (CB method, FICI)
Method: as §2, §3

Enterococcus sp. (1365) = experiment: Susceptibility (MIC50/MIC90), broth microdilution
Method: as §1

[6] = tested on: Pseudomonas aeruginosa (MTCC 366); experiment: Susceptibility (MIC50/MIC90), broth microdilution; details: MTCC366
Method: as §1

Providencia sp. (P592) = experiment: HN12b in combination with efflux pump inhibitors (CB method, FICI)
Method: as §2, §3

A. baumannii (AB387) = experiment: as above; details: for FICI / Interpretation: A. baumannii (AB387)
Method: as §2, §3

[7] = tested on: Escherichia coli (ATCC 25922); experiment: Susceptibility (MIC, PAE, MBC), broth microdilution; details: Escherichia coli
Method: as §1

E. coli 59^R = experiment: as above; details: Escherichia coli
Method: as §1

[8] = tested on: Salmonella typhimurium (MTCC 1251); experiment: Susceptibility (MIC50/MIC90), broth microdilution; details: Salmonella enterica
Method: as §1

E. coli 118^R = experiment: Susceptibility (MIC, PAE, MBC), broth microdilution; details: Escherichia coli
[9] = tested on: K. planticola (MTCC 2272); experiment: HN12b in combination with efflux pump inhibitors (CB method, FICI)
Method: as §2, §3

Enterococcus sp. (2105) [10] = experiment: Susceptibility (MIC50/MIC90), broth microdilution
Method: as §1

E. coli 151^R = experiment: Susceptibility (MIC, PAE, MBC), broth microdilution; details: Escherichia coli
Method: as §1

[11] = tested on: Klebsiella planticola (K235); experiment: Susceptibility (MIC50/MIC90), broth microdilution
Method: as §1

Enterococcus sp. (1367) = experiment: Susceptibility (MIC50/MIC90), broth microdilution
Method: as §1

[12] = K. planticola (1164), HN12b + CCCP
[13] = P. aeruginosa (Ps 366), HN12b + CCCP
[14] = Enterococcus sp. (2105), HN12b + CCCP
[15] = Providencia sp. (P592), HN12b + PAβN
[16] = ATCC25922, Escherichia coli (ATCC 25922), Table 2
[17] = K. planticola (MTCC 2272), HN12b + CCCP

With CCCN1CCN(c2nc3ccc(-c4nc5ccccc5[nH]4)cc3[nH]2)CC1 [HN12b, 2′-(4-propylpiperazine-1-yl)-1H, 3′H-2,5′-bibenzimidazole] as the compound, how does the MIC90 (E. coli 72^R) read?
Its MIC90 is 3.1 µg/mL (≈ 8.6 µM).

And the FICI (K. planticola (1164); [12])?
Its FICI is 0.5.

What about the Interpretation (K. planticola (1164); [12]) of the same compound?
Its Interpretation is “Synergy (FICI of ≤0.5 will correspond to synergy)”.

What about the FICI (K. planticola (1164); K. planticola (1164), HN12b + PAβN) of the same compound?
Its FICI is 1.

And the MIC90 (K. planticola (1164); Klebsiella planticola)?
The MIC90 was 128 µg/mL.

And the MIC90 (E. coli K12 mutant ΔacrA)?
Its MIC90 is 0.87 µg/mL (≈ 2.41 µM).

And the MIC50 [1]?
The MIC50 was > 128 µg/mL.

And the MIC90 [1]?
Its MIC90 is 128 µg/mL (≈ 355 µM).

And the MBC (E. coli 85^R)?
The MBC was 2 µg/mL (≈ 5.55 µM).

What about the MIC50 (E. coli 85^R) of the same compound?
The MIC50 was 1 µg/mL (≈ 2.77 µM).

What about the MIC90 (E. coli 85^R) of the same compound?
The MIC90 was 1.7 µg/mL (≈ 4.72 µM).

And the “gene expression of efflux pumps and porins” value [2]?
Its value is “acrAB-tolC and emr AB-tolC activation and ompC and ompF down-regulation”.

What about the MIC90 (E. coli K12 mutant ΔtolC) of the same compound?
The MIC90 was 0.5 µg/mL (≈ 1.39 µM).

And the FICI (P. aeruginosa (Ps 366); [13])?
Its FICI is 0.6.

What about the Interpretation (P. aeruginosa (Ps 366); [13]) of the same compound?
Its Interpretation is “Synergy (FICI of ≤0.5 will correspond to synergy)”.

What about the FICI (P. aeruginosa (Ps 366); P. aeruginosa (Ps 366), HN12b + PAβN) of the same compound?
Its FICI is 0.9.

What about the MIC90 (P. aeruginosa (Ps 366); Pseudomonas aeruginosa) of the same compound?
Its MIC90 is > 128 µg/mL.

What about the MBC (E. coli 451^R) of the same compound?
Its MBC is 2 µg/mL (≈ 5.55 µM).

And the MIC50 (E. coli 451^R)?
The MIC50 was 1 µg/mL (≈ 2.77 µM).

And the MIC90 (E. coli 451^R)?
The MIC90 was 1.7 µg/mL (≈ 4.72 µM).

What about the MIC50 [3] of the same compound?
The MIC50 was 34.4 µg/mL (≈ 95.5 µM).

What about the MIC90 [3] of the same compound?
Its MIC90 is 124 µg/mL (≈ 344 µM).

What about the MIC50 (Enterococcus sp.(1150)) of the same compound?
The MIC50 was 0.25 µg/mL (≈ 0.694 µM).

What about the MIC90 (Enterococcus sp.(1150)) of the same compound?
Its MIC90 is 13.2 µg/mL (≈ 36.8 µM).

What about the “in vivo efficacy in combination with CCCP” value [4] of the same compound?
Its value is “further improves”.

What about the MIC90 (Enterococcus sp. (2105) [5]; Enterococcus) of the same compound?
The MIC90 was 128 µg/mL.

What about the FICI (Enterococcus sp. (2105) [5]; [14]) of the same compound?
The FICI was 0.5.

And the Interpretation (Enterococcus sp. (2105) [5]; [14])?
The Interpretation was “Synergy (FICI of ≤0.5 will correspond to synergy)”.

What about the FICI (Enterococcus sp. (2105) [5]; Enterococcus sp. (2105), HN12b + PAβN) of the same compound?
The FICI was 1.

And the MIC50 (Enterococcus sp. (1365))?
The MIC50 was 0.25 µg/mL (≈ 0.694 µM).

And the MIC90 (Enterococcus sp. (1365))?
The MIC90 was 11.2 µg/mL (≈ 31.2 µM).

And the MIC50 [6]?
The MIC50 was 19 µg/mL (≈ 52.7 µM).

And the MIC90 [6]?
Its MIC90 is 128 µg/mL (≈ 355 µM).

What about the MIC90 (Providencia sp. (P592); Providencia) of the same compound?
Its MIC90 is 58 µg/mL.

What about the FICI (Providencia sp. (P592); Providencia sp. (P592), HN12b + CCCP) of the same compound?
Its FICI is 0.6.

What about the FICI (Providencia sp. (P592); [15]) of the same compound?
The FICI was 0.4.

What about the Interpretation (Providencia sp. (P592); [15]) of the same compound?
Its Interpretation is “Synergy (FICI of ≤0.5 will correspond to synergy)”.

And the FICI (A. baumannii (AB387); HN12b + CCCP)?
Its FICI is 0.2.

And the Interpretation (A. baumannii (AB387); HN12b + CCCP)?
The Interpretation was “Synergy (FICI of ≤0.5 will correspond to synergy)”.

And the FICI (A. baumannii (AB387); HN12b + PAβN)?
The FICI was 0.2.

And the Interpretation (A. baumannii (AB387); HN12b + PAβN)?
Its Interpretation is “Synergy (FICI of ≤0.5 will correspond to synergy)”.

And the MIC90 (A. baumannii (AB387); Acinetobacter baumannii)?
The MIC90 was 8 µg/mL.

And the MBC ([7]; ATCC25922)?
The MBC was 4 µg/mL (≈ 11.1 µM).

And the MIC50 ([7]; ATCC25922, ATCC 25922)?
Its MIC50 is 0.2 µg/mL (≈ 0.555 µM).

And the MIC90 ([7]; ATCC25922, ATCC 25922)?
The MIC90 was 3.3 µg/mL (≈ 9.15 µM).

What about the MIC50 ([7]; ATCC25922, ATCC25922, Table 7) of the same compound?
The MIC50 was 0.2 ± 0.024 µg/mL (≈ 0.555 µM).

And the MIC50 [7, 16]?
Its MIC50 is 8 µg/mL (≈ 22.2 µM).

And the MIC90 [7, 16]?
Its MIC90 is 26.6 µg/mL (≈ 73.8 µM).

What about the MBC (E. coli 59^R) of the same compound?
The MBC was 4 µg/mL (≈ 11.1 µM).

What about the MIC50 (E. coli 59^R) of the same compound?
Its MIC50 is 2 µg/mL (≈ 5.55 µM).

What about the MIC90 (E. coli 59^R) of the same compound?
The MIC90 was 3.4 µg/mL (≈ 9.43 µM).

And the MIC50 [8]?
Its MIC50 is < 0.25 µg/mL.

And the MIC90 [8]?
Its MIC90 is < 0.25 µg/mL.

What about the MBC (E. coli 118^R) of the same compound?
Its MBC is 2 µg/mL (≈ 5.55 µM).

And the MIC50 (E. coli 118^R)?
The MIC50 was 1 µg/mL (≈ 2.77 µM).

What about the MIC90 (E. coli 118^R) of the same compound?
The MIC90 was 1.7 µg/mL (≈ 4.72 µM).

And the FICI [9, 17]?
The FICI was 0.5.

And the Interpretation [9, 17]?
The Interpretation was “Synergy (FICI of ≤0.5 will correspond to synergy)”.

What about the FICI ([9]; K. planticola (MTCC 2272), HN12b + PAβN) of the same compound?
The FICI was 1.

What about the MIC90 ([9]; Klebsiella planticola, MTCC2272) of the same compound?
The MIC90 was > 128 µg/mL.

And the MIC50 (Enterococcus sp. (2105) [10])?
Its MIC50 is 28.4 µg/mL (≈ 78.8 µM).

What about the MIC90 (Enterococcus sp. (2105) [10]) of the same compound?
The MIC90 was 128 µg/mL (≈ 355 µM).

What about the MBC (E. coli 151^R) of the same compound?
Its MBC is 2 µg/mL (≈ 5.55 µM).

And the MIC50 (E. coli 151^R)?
Its MIC50 is 1 µg/mL (≈ 2.77 µM).

What about the MIC90 (E. coli 151^R) of the same compound?
The MIC90 was 1.7 µg/mL (≈ 4.72 µM).

And the MIC50 [11]?
The MIC50 was 4.52 µg/mL (≈ 12.5 µM).

What about the MIC90 [11] of the same compound?
The MIC90 was 84.5 µg/mL (≈ 234 µM).

And the MIC50 (Enterococcus sp. (1367))?
Its MIC50 is < 0.25 µg/mL.

And the MIC90 (Enterococcus sp. (1367))?
Its MIC90 is 11.4 µg/mL (≈ 31.5 µM).
